# Experimental data published in PubChem BioAssay AID328 (DTP/NCI, 2004).
# Several values for one entry are separate records, joined by “and”; a condition that tells them apart may be missing. Equal entries are not always repeated. Toxic doses and inconclusive results are not listed. Residues, ends and D or L forms follow the SMILES beside them.
# Test system: BDF1 mice, P388 leukemia ip, median survival T/C
# Assay: NCI In Vivo Anticancer Drug Screen. Data for tumor model P388 Leukemia (intraperitoneal) in B6D2F1 (BDF1) mice
# Settings: endpoint: median survival time, higher = longer survival
# Outline: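 Antitumour effect was judged in vivo: survival in drug-treated mice, normalised to that of vehicle-dosed controls, gives the reported T/C.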
# [1] = dose: 50.0 mg/kg/injection, schedule: Q01DX009 (ip), vehicle: water
# [2] = dose: 100.0 mg/kg/injection, schedule: Q01DX009 (ip), vehicle: water
# [3] = dose: 100.0 mg/kg/injection, schedule: Q04DX003 (ip), vehicle: water
# [4] = dose: 200.0 mg/kg/injection, schedule: Q04DX003 (ip), vehicle: water
# [5] = dose: 12.5 mg/kg/injection, schedule: Q01DX009 (ip), vehicle: saline with Tween-80
# [6] = dose: 25.0 mg/kg/injection, schedule: Q01DX009 (ip), vehicle: saline with Tween-80
# [7] = dose: 50.0 mg/kg/injection, schedule: Q01DX009 (ip), vehicle: saline with Tween-80
# [8] = dose: 100.0 mg/kg/injection, schedule: Q04DX003 (ip), vehicle: saline
# [9] = dose: 200.0 mg/kg/injection, schedule: Q04DX003 (ip), vehicle: saline
# [10] = dose: 400.0 mg/kg/injection, schedule: Q04DX003 (ip), vehicle: saline
# [11] = dose: 200.0 mg/kg/injection, schedule: Q01DX009 (ip), vehicle: saline with Tween-80
# [12] = dose: 400.0 mg/kg/injection, schedule: Q01DX009 (ip), vehicle: saline with Tween-80
# [13] = dose: 6.25 mg/kg/injection, schedule: Q01DX009 (ip), vehicle: water
# [14] = dose: 12.5 mg/kg/injection, schedule: Q01DX009 (ip), vehicle: water
# [15] = dose: 25.0 mg/kg/injection, schedule: Q01DX009 (ip), vehicle: water
# [16] = dose: 200.0 mg/kg/injection, schedule: Q01DX009 (ip), vehicle: water
# [17] = dose: 400.0 mg/kg/injection, schedule: Q01DX009 (ip), vehicle: water
compound,measurement,setting,value
CC(=O)Nc1cc(F)c([N+](=O)[O-])cc1[N+](=O)[O-],T/C,"dose: 0.62 mg/kg/injection, schedule: Q01DX009 (ip), vehicle: saline",115 % of control
same,T/C,"dose: 1.25 mg/kg/injection, schedule: Q01DX009 (ip), vehicle: saline",100 % of control
same,T/C,"dose: 2.5 mg/kg/injection, schedule: Q01DX009 (ip), vehicle: Klucel (hydroxypropylcellulose) (HPC)",105 % of control
same,T/C,"dose: 2.5 mg/kg/injection, schedule: Q01DX009 (ip), vehicle: saline",300 % of control and 100 % of control
same,T/C,"dose: 5.0 mg/kg/injection, schedule: Q01DX009 (ip), vehicle: Klucel (hydroxypropylcellulose) (HPC)",115 % of control
same,T/C,"dose: 5.0 mg/kg/injection, schedule: Q01DX009 (ip), vehicle: saline",300 % of control and 110 % of control
same,T/C,"dose: 10.0 mg/kg/injection, schedule: Q01DX009 (ip), vehicle: Klucel (hydroxypropylcellulose) (HPC)",100 % of control
same,T/C,"dose: 10.0 mg/kg/injection, schedule: Q01DX009 (ip), vehicle: saline",300 % of control and 105 % of control
same,T/C,"dose: 20.0 mg/kg/injection, schedule: Q01DX009 (ip), vehicle: Klucel (hydroxypropylcellulose) (HPC)",110 % of control
same,T/C,"dose: 20.0 mg/kg/injection, schedule: Q01DX009 (ip), vehicle: saline",95 % of control
CCN(CC)CCCNC(C)CCCN(CC)CC (stereo not given),T/C,[1],103 % of control
same,T/C,[2],98 % of control
same,T/C,[3],102 % of control
same,T/C,[4],100 % of control
CCN(CC)CCOC(=O)c1ccccc1N(c1ccccc1)c1ccccc1,T/C,"dose: 62.5 mg/kg/injection, schedule: Q01DX009 (ip), vehicle: Klucel (hydroxypropylcellulose) (HPC)",118 % of control
same,T/C,"dose: 125.0 mg/kg/injection, schedule: Q01DX009 (ip), vehicle: Klucel (hydroxypropylcellulose) (HPC)",118 % of control
CC1(C)N=C(N)N=C(N)N1c1cccc(CCCCOc2ccccc2)c1,T/C,"dose: 8.0 mg/kg/injection, schedule: Q01DX009 (ip), vehicle: saline with Tween-80",150 % of control
same,T/C,"dose: 12.0 mg/kg/injection, schedule: Q01DX009 (ip), vehicle: saline with Tween-80",150 % of control
same,T/C,"dose: 18.0 mg/kg/injection, schedule: Q01DX009 (ip), vehicle: saline with Tween-80",170 % of control
Cc1cc2c(C(C)C)c(O)c(O)cc2c(O)c1-c1c(C)cc2c(C(C)C)c(O)c(O)cc2c1O,T/C,[5],91 % of control
same,T/C,[6],100 % of control
same,T/C,[7],120 % of control
CCN(CC)C(=O)Cn1cc(F)c(N)nc1=O,T/C,"dose: 100.0 mg/kg/injection, schedule: Q01DX009 (ip), vehicle: saline",95 % of control
same,T/C,[8],110 % of control
same,T/C,"dose: 200.0 mg/kg/injection, schedule: Q01DX009 (ip), vehicle: saline",90 % of control
same,T/C,[9],100 % of control
same,T/C,[10],100 % of control
CCOc1ccc(/C=N/NS(=O)(=O)c2ccccc2)cc1OC,T/C,[11],105 % of control
same,T/C,[12],100 % of control
CCCCN(CCCC)c1ccc([N+](=O)[O-])c2no[n+]([O-])c12,T/C,"dose: 15.0 mg/kg/injection, schedule: Q01DX009 (ip), vehicle: saline with Tween-80",96 % of control
same,T/C,"dose: 30.0 mg/kg/injection, schedule: Q01DX009 (ip), vehicle: saline with Tween-80",92 % of control
same,T/C,"dose: 60.0 mg/kg/injection, schedule: Q01DX009 (ip), vehicle: saline with Tween-80",91 % of control
CC(=O)Oc1cc(-c2ccccc2)c(OC(C)=O)cc1-c1ccccc1,T/C,[13],109 % of control
same,T/C,[14],95 % of control
same,T/C,"dose: 12.5 mg/kg/injection, schedule: Q04DX003 (ip), vehicle: water",89 % of control
same,T/C,[15],93 % of control
same,T/C,"dose: 25.0 mg/kg/injection, schedule: Q04DX003 (ip), vehicle: water",89 % of control and 95 % of control
same,T/C,[1],92 % of control
same,T/C,"dose: 50.0 mg/kg/injection, schedule: Q04DX003 (ip), vehicle: water",91 % of control and 98 % of control
same,T/C,[2],94 % of control
same,T/C,[3],89 % of control and 95 % of control
same,T/C,[16],102 % of control
same,T/C,"dose: 300.0 mg/kg/injection, schedule: Q01DX009 (ip), vehicle: water",107 % of control
same,T/C,[17],91 % of control
O=C(O)C1OC12CCCCC2 (stereo not given),T/C,[8],91 % of control
same,T/C,[9],91 % of control
same,T/C,[10],91 % of control
CC(=O)c1cccc(OCc2ccccc2)c1,T/C,"dose: 100.0 mg/kg/injection, schedule: Q01DX009 (ip), vehicle: other",118 % of control
same,T/C,"dose: 100.0 mg/kg/injection, schedule: Q04DX003 (ip), vehicle: other",100 % of control
same,T/C,"dose: 200.0 mg/kg/injection, schedule: Q01DX009 (ip), vehicle: other",95 % of control
same,T/C,"dose: 200.0 mg/kg/injection, schedule: Q04DX003 (ip), vehicle: other",95 % of control
same,T/C,"dose: 400.0 mg/kg/injection, schedule: Q01DX009 (ip), vehicle: other",109 % of control
same,T/C,"dose: 400.0 mg/kg/injection, schedule: Q04DX003 (ip), vehicle: other",116 % of control
CC(=O)OCC(=O)[C@@]1(O)CC[C@H]2[C@@H]3C[C@H](F)C4=CC(=O)CC[C@]4(C)[C@H]3[C@@H](O)C[C@@]21C,T/C,[5],109 % of control
same,T/C,[6],118 % of control
same,T/C,[7],118 % of control
Cn1c[n+](C)ccc1=O,T/C,[2],97 % of control
same,T/C,[3],91 % of control
same,T/C,[16],107 % of control
same,T/C,[4],88 % of control
same,T/C,[17],97 % of control
same,T/C,"dose: 400.0 mg/kg/injection, schedule: Q04DX003 (ip), vehicle: water",89 % of control
CCOC(=O)N(C)c1ccc(Cl)cc1C(N)=O,T/C,"dose: 100.0 mg/kg/injection, schedule: Q04DX003 (ip), vehicle: Klucel (hydroxypropylcellulose) (HPC)",100 % of control
same,T/C,"dose: 200.0 mg/kg/injection, schedule: Q04DX003 (ip), vehicle: Klucel (hydroxypropylcellulose) (HPC)",94 % of control
same,T/C,"dose: 400.0 mg/kg/injection, schedule: Q04DX003 (ip), vehicle: Klucel (hydroxypropylcellulose) (HPC)",115 % of control
COc1ccccc1C1(O)c2ccccc2Sc2cccc(OC)c21 (stereo not given),T/C,"dose: 100.0 mg/kg/injection, schedule: Q01DX009 (ip), vehicle: saline with Tween-80",104 % of control
same,T/C,[11],100 % of control
same,T/C,[12],95 % of control
COC(=O)C12OCC34C(CC5C(C)=C(O)C(=O)CC5(C)C3C(O)C1O)OC(=O)C(OC(=O)CC(C)C(C)C)C24 (stereo not given),T/C,"dose: 2.0 mg/kg/injection, schedule: Q01DX009 (ip), vehicle: saline + alcohol",156 % of control
same,T/C,"dose: 4.0 mg/kg/injection, schedule: Q01DX009 (ip), vehicle: saline + alcohol",176 % of control
same,T/C,"dose: 7.0 micrograms/kg/injection, schedule: Q01DX009 (ip), vehicle: saline + alcohol",100 % of control
same,T/C,"dose: 15.0 micrograms/kg/injection, schedule: Q01DX009 (ip), vehicle: saline + alcohol",95 % of control and 119 % of control
same,T/C,"dose: 27.5 micrograms/kg/injection, schedule: Q01DX009 (ip), vehicle: saline",120 % of control
same,T/C,"dose: 31.0 micrograms/kg/injection, schedule: Q01DX009 (ip), vehicle: saline + alcohol",107 % of control and 113 % of control
same,T/C,"dose: 62.0 micrograms/kg/injection, schedule: Q01DX009 (ip), vehicle: saline + alcohol",115 % of control and 122 % of control
same,T/C,"dose: 440.0 micrograms/kg/injection, schedule: Q01DX009 (ip), vehicle: saline",150 % of control
same,T/C,"dose: 500.0 micrograms/kg/injection, schedule: Q01DX009 (ip), vehicle: saline + alcohol",123 % of control
same,T/C,"dose: 1000.0 micrograms/kg/injection, schedule: Q01DX009 (ip), vehicle: saline + alcohol",163 % of control
same,T/C,"dose: 2000.0 micrograms/kg/injection, schedule: Q01DX009 (ip), vehicle: saline + alcohol",168 % of control
same,T/C,"dose: 4000.0 micrograms/kg/injection, schedule: Q01DX009 (ip), vehicle: saline + alcohol",163 % of control
COc1ccc(N2CCN(c3ccc([N+](=O)[O-])c4no[n+]([O-])c34)CC2)cc1,T/C,"dose: 15.0 mg/kg/injection, schedule: Q04DX003 (ip), vehicle: saline with Tween-80",101 % of control
same,T/C,"dose: 30.0 mg/kg/injection, schedule: Q04DX003 (ip), vehicle: saline with Tween-80",100 % of control
same,T/C,"dose: 60.0 mg/kg/injection, schedule: Q04DX003 (ip), vehicle: saline with Tween-80",104 % of control
NCCCCC(N)C(=O)NC(CCCN=C(N)N)C(=O)O (stereo not drawn) (H-Lys-Arg-OH; configuration not given here),T/C,"dose: 3.12 mg/kg/injection, schedule: Q01DX009 (ip), vehicle: water",101 % of control
same,T/C,[13],97 % of control and 99 % of control and 117 % of control
same,T/C,[14],105 % of control and 109 % of control
same,T/C,[15],101 % of control and 104 % of control and 118 % of control
same,T/C,[1],93 % of control and 94 % of control and 95 % of control
same,T/C,[2],90 % of control and 100 % of control and 113 % of control
same,T/C,[16],109 % of control
